Patent US9207296B2, “Methods and apparatus for pasadena hyperpolarization” (Huntington Medical Research Institutes, priority 2008, dated 2015)
Where “and” joins values, the source holds several entries; their conditions need not be identical. Equal values may be shown once. Read-outs that look alike come from different tables or passages of the source.

Key:
[1] = 13C spin storage followed by refocused INEPT polarization transfer to 1H; assay type: physicochemical; conditions: for initial 13C polarization: 2.4 mL sample, polarizer at 1.76 mT; for T1 during 13C spin storage: FIG. 20 samples, […] succinate / 2.9 mM TFPP; for 13C polarization after storage: after 70 s (succinate) or 24 s (TFPP), 12° excitation pulse; for 13C polarization after storage / net 1H NMR signal enhancement / final 13C signal enhancement: 4.7 T; for net 1H NMR signal enhancement: after refocused INEPT; for final 13C signal enhancement: after storage; for increase of overall sensitivity by proton detection: factor versus hyperpolarized 13C detection; for polarization transfer efficiency 13C to 1H: refocused INEPT
From the text: Specifically, the present subject matter hyperpolarized the ^13C site of two well studied molecules, 1-^13C-succinate-d2 and 2,2,3,3-tetrafluoropropyl 1-^13C-propionate-d3 (TFPP), by […].
Hyperpolarization was then kept on ^13C for 70 s. During this time, the polarized sample was transferred from a low magnetic field polarizer operating at 1.76 mT to 4.7 T animal MR scanner. […] Then the refocused INEPT pulse sequence^10 with τINEPT=34 ms and τrefocus=32 ms (FIG. 19) was used to transfer polarization from ^13C to protons within 1-^13C-succinate-d2 (FIG. 20A and FIG. 20B). […] The delays of the refocused INEPT were τINEPT=20 ms and τrefocus=16 ms.

[2] = T1 decay of hyperpolarization (small angle FID series); assay type: physicochemical
[3] = system: rat brain; conditions: rapid ante-grade injection into common carotid artery, 1 mL, overlaid on 1H MRI
[4] = for 13C signal enhancement (nascent): at 4.7 T, relative to thermal polarization; for 13C polarization achieved (maximal): best value after calibration
Description: A number of strategies have been employed to quantify the extent of hyperpolarization [Association N.E.M. Determination of signal-to-noise ratio (SNR) in diagnostic magnetic resonance imaging. NEMA Standards, Publication MS 1-2001 (2001)]. In the present application, the following convention was applied. The signal enhancement (ηobserved) achieved by hyperpolarization was quantified in respect to the signal of a thermally polarized sample (100% ethanol, 188 mM of natural abundance ^13C at each site (Eq. 7)). The signal intensities were determined by numerical integration (xWINNMR software, Bruker Biospin, Germany)
[formula] (where IHP, Iref, CHP and Cref are integral intensities and molar concentrations of hyperpolarized and reference samples, respectively).
The decay of ^13C polarization caused by longitudinal relaxation (T1) of the hyperpolarized sample during the delivery to the detection system was determined (FIG. 15). This allows for the determination of the nascent signal enhancement (Eq. 8), and nascent level of achieved polarization (Eq. 9).
Unless otherwise indicated, PHP^t=0 and η^t=0 are reported in the work presented, using a ^13C polarization of PBoltzmann=0.00041% or 4.1 ppm at 298K and 4.7 T. T1 values for the […] reagent concerned in calibration and quality assurance (“QA”) were determined directly. A series of small angle (α≈8°) FID experiments was employed to probe the decay of the magnetization of the hyperpolarized agents (small excitation angle approximation, SEA). The T1 values were extracted by the fit of Equation 10 (Eq. 10) to the data points, taking into account the loss of magnetization caused by the excitation pulses.
Delivering hyperpolarized sample and triggered detection in the NMR scanner were further optimized. The polarizer was moved to the in vivo suite, where it was positioned carefully 7.63 m+0.5 cm from a small-animal horizontal bore, high field MRI (4.7T Bruker MRI scanner). An automated system was implemented, whereby the hyperpolarized solution was driven by remaining gas pressure in the reactor, through polyethelene (PE) tubing from the polarizer to an NMR-tube in a dual-tuned ^1H/^13C solenoid coil in the MR scanner; where after a precise interval (33 seconds) acquisition was triggered. The solution was then drained to permit successive experiments without coil repositioning.
Peak amplitude was quantified by comparison with the spectrum of ethanol (FIG. 16), using the equations described herein.

Compound | initial 13C polarization [1] [%] | T1 during 13C spin storage [1] [s] | 13C polarization after storage [1] [%] | net 1H NMR signal enhancement [1] | final 13C signal enhancement [1] | increase of overall sensitivity by proton detection [1] | polarization transfer efficiency 13C to 1H [1] | other results
[2H]C([2H])C([2H])[13C](=O)OCC(F)(F)C(F)F (stereo not shown) [TFPP, 2,2,3,3-tetrafluoropropyl 1-^13C-propionate-d3] | 14 | 67 | 9.5 | 2,930 fold | 23,300 fold | 7.9 | 50% and 51% | 
CC[13C](=O)OCCO [HEP, reference compound] |  |  |  |  |  |  |  | T1 decay time in D2O ([2]; D2O, pH 7, B0=4.7 T): 70 s; T1 decay time in H2O ([2]; H2O, pH 7, B0=4.7 T): 50 s
O=C(O)CCC(=O)O [1-^13C-SUCC-d2,3, 1-^13C-succinate-d2,3] | 10.7 | 105 | 5.5 | 1,350 fold | 13,500 fold | 6.5 | 41% | distribution of 13C image signal in vivo [3]: appeared in the anatomical distribution coincident with the rat brain; T1 of hyperpolarized 13C signal in D2O ([2]; D2O, pH 3, B0=4.7 T, N=4): 40 ± 2 s; T1 of hyperpolarized 13C signal in H2O ([2]; H2O, pH 3, B0=4.7 T, N=3, 1-3 mM SUC, 2.5 mM catalyst): 27 ± 3 s; T1 when buffered to physiological pH ([2]; buffered to pH 7 immediately before detection, preliminary): ~50 s; effect of concentration on level of hyperpolarization ([4]; 1.65-2.89 mM in water, 0.96-2.93 mM in D2O): No effect; 13C signal enhancement at the point of measurement ([4]; 4.7 T, 33 s after production): 15,900 fold; PHP^t=0 average nascent polarization, stated in H2O ([4]; 16 experiments, in H2O before B1 calibration as printed): 15.3 ±1.9%; polarization at the point of measurement in water ([4]; H2O, mean delay 33 s): 5.4 ±1.3%; 13C signal enhancement (nascent) [4]: 49,000 fold and 37,400 ±4,600 fold; 13C signal enhancement (nascent) ([4]; listed as 13C succinate): 47,000 fold; 13C polarization achieved (maximal) ([4]; listed as 1-^13C succinate): 18%; 13C polarization achieved (maximal) ([4]; listed as 13C succinate): 19%
